According to BigSolDB 2.1:

CC1(C)[C@@H](O)CC[C@]2(C)[C@H]3C(=O)C=C4[C@@H]5C[C@@](C)(C(=O)O)CC[C@]5(C)CC[C@@]4(C)[C@]3(C)CC[C@@H]12
solubility (mole fraction)
Settings | 278.15 K | 283.15 K | 288.15 K | 293.15 K | 298.15 K | 303.15 K | 308.15 K | 313.15 K | 318.15 K | 323.15 K
in 1,4-dioxane | – | – | 0.0277 | 0.0286 | 0.0298 | 0.031 | 0.0323 | 0.0335 | 0.0348 | 0.0366
in DMF | 0.0449 | 0.0478 | 0.051 | 0.0545 | 0.058 | 0.0615 | 0.0654 | 0.0692 | 0.0733 | 0.0777
in ethanol | 0.0109 | 0.0115 | 0.0121 | 0.0128 | 0.0134 | 0.0141 | 0.0147 | 0.0155 | 0.0163 | 0.0172
in isopropanol | 0.00911 | 0.00991 | 0.0108 | 0.0116 | 0.0124 | 0.0133 | 0.0142 | 0.0151 | 0.016 | 0.017
in water | 8.02e-08 | 9.91e-08 | 1.22e-07 | 1.5e-07 | 1.82e-07 | 2.2e-07 | 2.61e-07 | 3.17e-07 | 3.76e-07 | 4.49e-07
